These results are taken from patent US6440979B1, “Aryl isoguanines” (Euro-Celtique, S.A., priority 1994, dated 2002).

The structures appear in SMILES notation. Where two headings read alike, the source gives them in different places.

The target of data set [1] is T1, Type V PDE isolated from platelets (Homo sapiens, UniProt O76074).
T1 construct: Fractions that contain PDE V are pooled and dialyzed overnight; from tissue
The experiment in a line: Type V PDE inhibition, hydrolysis of [3H]-cyclic GMP. It is filed as biochemical. The following applies: cyclic GMP 0.2 uM; 2.5% DMSO. On the procedure: The Type V PDE is isolated using a procedure similar to that previously described by Weishaar et al., Hypertension 15:528, (1990). Briefly, 1-2 units of platelets are suspended in an equal volume of buffer A (20 mM Tris-HCl, pH 7.5, containing 2 mM magnesium acetate, 1 mM dithiothreitol, and 5 mM Na2EDTA) using a polytron. The proteinase inhibitor phenylmethylsulfonyl fluoride (PMSF) are also included in this buffer at a final concentration of 200 uM. This and all subsequent procedures are performed at 0-4° C. The homogenate is then centrifuges at 100,000×g for 60 minutes. The supernatant is then removed and filtered through four layers of gauze and applied to a DEAE-Trisacryl M column. The column is washed with several bed volumes of buffer B (20 mM Tris-HCl, pH 7.5, containing 2 mM magnesium acetate, 1 mM diothiothreitol, and 200 uM PMSF) and eluted by two successive linear NaCl gradients (0.05-0.15 M, 300 ml total; 0.15-0.40 M, 200 ml total). Five ml fractions are collected and assayed for cyclic AMP and cyclic GMP PDE activity. Fractions that contain PDE V are pooled and dialyzed overnight against 4 L of buffer C (20 mm Tris-HCl, pH 7.5, containing 2 mM magnesium acetate and proteinase inhibitors). The dialyzed PDE V is then concentrated to 10% of the original volume, diluted to 50% with ethylene glycol monoethyl ether and stored at −20° C. PDE V can typically be retained for up to four weeks with little or no loss of activity.
Enzyme activity are assessed by measuring the hydrolysis of [^3H]-cyclic […], as described by Thompson et al. (Thompson, W. J., Teraski, W. L., Epstein, P. N., Strada, S. J.: Adv. Cyclic Nucleotide Res. 10:69, 1979). The cyclic GMP concentration used in this assay is 0.2 uM, which approximates to the Km value. Protein concentration is adjusted to ensure that no more than 15% of the available substrate is hydrolyzed during the incubation period.
All test compounds are dissolved in dimethyl sulfoxide (final concentration of 2.5%). […] The reference Type V PDE inhibitor zaprinast is evaluated with each assay.
(§1) The compounds are tested over concentration range: 0.1, 1, 10, 100 uM (n=1), and IC50 determinations are made using 5 appropriate concentrations (n=2).

The target in data set [2] is T2, Type III PDE isolated from human platelets (Homo sapiens, UniProt Q14432).
T2 construct: Fractions containing PDE III activity are pooled and dialyzed overnight; from tissue; host or cells: human platelets (100,000 x g supernatant, DEAE-Trisacryl M fraction)
T2 sequence (Q14432 whole entry): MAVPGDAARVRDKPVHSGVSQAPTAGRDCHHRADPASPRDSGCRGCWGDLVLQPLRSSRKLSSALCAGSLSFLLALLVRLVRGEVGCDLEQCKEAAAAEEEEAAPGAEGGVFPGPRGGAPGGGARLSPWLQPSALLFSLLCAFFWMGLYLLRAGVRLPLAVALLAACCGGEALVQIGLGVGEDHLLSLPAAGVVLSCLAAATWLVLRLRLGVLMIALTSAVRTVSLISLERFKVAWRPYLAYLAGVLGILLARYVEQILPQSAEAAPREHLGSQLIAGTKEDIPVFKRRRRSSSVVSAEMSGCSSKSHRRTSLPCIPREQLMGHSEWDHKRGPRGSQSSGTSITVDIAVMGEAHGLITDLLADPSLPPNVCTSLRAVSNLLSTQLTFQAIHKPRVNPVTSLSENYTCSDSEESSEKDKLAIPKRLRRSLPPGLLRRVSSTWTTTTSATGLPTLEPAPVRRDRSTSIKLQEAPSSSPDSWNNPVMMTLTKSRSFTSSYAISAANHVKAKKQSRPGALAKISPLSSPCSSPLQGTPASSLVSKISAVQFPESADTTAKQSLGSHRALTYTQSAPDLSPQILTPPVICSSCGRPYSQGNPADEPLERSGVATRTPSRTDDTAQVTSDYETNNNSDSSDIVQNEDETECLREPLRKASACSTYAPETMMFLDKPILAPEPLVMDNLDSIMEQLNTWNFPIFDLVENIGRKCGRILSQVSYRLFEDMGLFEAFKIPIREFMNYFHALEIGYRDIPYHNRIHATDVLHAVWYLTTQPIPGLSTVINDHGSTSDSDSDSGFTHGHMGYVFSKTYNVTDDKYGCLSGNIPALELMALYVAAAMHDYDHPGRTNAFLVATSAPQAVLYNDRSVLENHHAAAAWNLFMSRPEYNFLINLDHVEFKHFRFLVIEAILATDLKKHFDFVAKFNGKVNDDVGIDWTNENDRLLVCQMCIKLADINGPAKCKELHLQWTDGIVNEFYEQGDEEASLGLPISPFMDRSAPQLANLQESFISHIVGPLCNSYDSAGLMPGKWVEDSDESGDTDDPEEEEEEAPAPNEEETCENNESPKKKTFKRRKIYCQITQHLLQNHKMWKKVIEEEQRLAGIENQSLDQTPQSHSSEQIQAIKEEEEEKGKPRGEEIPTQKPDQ
The experiment in a line: Type III PDE inhibition, hydrolysis of [3H]-cyclic AMP. It is filed as biochemical. Here is the method: The Type III PDE is isolated from human platelets using a procedure similar to that previously described by Weishaar, R. E. et al., Biochem. Pharmacol., 35:787, 1986. Briefly, 1-2 units of platelets are suspended in an equal volume of buffer (20 mM Tris-HCl, pH 7.5, containing 2 mM magnesium acetate, 1 mM dithiothreitol, and 5 mM Na2 EDTA). The proteinase inhibitor phenylmethyl-sulfonyl fluoride (PMSF) is also included in this buffer at a final concentration of 200 μM. The suspension is homogenized using a polytron and the homogenate centrifuged at 100,000×g for 60 minutes. This and all subsequent procedures are performed at 0-4° C. The supernatant is then filtered through four layers of gauze and applied to a DEAE-Trisacryl M column, previously equilibrated with buffer B (20 mM Tris-HCl, pH 7.5, containing 1 mM magnesium acetate, 1 mM dithiothreitol and 200 μM PMSF). After application of the sample, the column is washed with several bed volumes of buffer B, after which the different forms of PDE are eluted from the column using two successive linear NaCl gradients (0.05-0.15 M, 300 ml total; 0.15-0.40 Ma 200 ml total); Five ml fractions are collected and assayed for cyclic AMP and cyclic GMP PDE activity., Fractions containing PDE III activity are pooled and dialyzed overnight against 4 L of buffer B. The dialyzed PDE III is then concentrated to 10% of the original volume, diluted to 50% with ethylene glycol monoethyl ether and stored at −20° C. PDE III can typically be retained for up to four weeks with little or no loss of activity.
Enzyme activity is assessed by measuring the hydrolysis of [(^3H]-cyclic AMP, as described by Thompson, W. J. et al., Adv. Cyclic Nucleotide Res. 10:69, 1979. The cyclic AMP concentration used in this assay is 0.2 μM, which approximates to the Km value. Protein concentration is adjusted to ensure that no more than 15% of the available substrate is hydrolyzed during the incubation period.
(§2) All test compounds are dissolved in dimethyl sulfoxide (final concentration of 2.5%). This concentration of dimethyl sulfoxide inhibits enzyme activity by approximately 10%.
as §1

The test system of data set [3] is PDE IV isolated from bovine tracheal smooth muscle. The experiment in a line: Type IV PDE inhibition, hydrolysis of [3H]-cyclic AMP. It is filed as biochemical. As to conditions: cyclic AMP 0.2 μM; 2.5% DMSO.
Text: The PDE IV inhibitory compounds of the present invention may be examined for their PDE IV inhibitory effects via the techniques set forth in the following examples, wherein the ability of the compounds to inhibit PDE IV isolated from bovine tracheal smooth muscle is set forth.
The Type IV PDE is isolated from bovine tracheal smooth muscle using a procedure similar to that previously described by Silver, P. J. et al., Eur. J. Pharmacol. 150:85,1988. Briefly, smooth muscle from bovine trachea is minced and homogenized using a polytron in 10 volumes of an extraction buffer containing 10 mm Tris-acetate (pH 7.5), 2 mM magnesium chloride, 1 mM dithiothreitol and 2,000 units/ml of aprotinin. This and all subsequent procedures are performed at 0-4° C. The homogenate is sonicated and then centrifuged at 48,000×g for 30 minutes. The resulting supernatant is applied to a DEAE Trisacryl M column previously equilibrated with sodium acetate and dithiothreitol. After applications of the sample, the column is washed with sodium acetate/dithiothreitol, after which the different forms of PDE are eluted from the column using a linear Tris-HCl/NaCl gradient. Fractions containing Type IV PDE are collected, dialyzed and concentrated to 14% of the original volume. The concentrated fractions are diluted to 50% with ethylene glycol and stored at −20° C.
Enzyme activity is assessed by measuring the hydrolysis of [^3H]-cyclic AMP, as described by Thompson, W. J. et al., Adv. Cyclic Nucleotide Res. 10:69, 1979. The cyclic AMP concentration used in this assay is 0.2 μM, which approximates the Km value. Protein concentration is adjusted to ensure that no more than 15% of the available substrate is hydrolyzed during the incubation period.
as §2, §1

[4] abbreviates: cyclic AMP 0.2 μM, 2.5% DMSO, read-out: PDE ACTIVITY IC50 PDE III.

For `COc1ccc(Cn2c(=O)[nH]c(=S)c3[nH]c(C(C)C)nc32)cc1OC1CCCC1` [Ex. 1, 3-(3-Cyclopentyloxy-4-methoxy-benzyl)-8-isopropyl-6-thioxanthine], the IC50 in data set [1] is 25.7 µM; in data set [2] (setting [4]) it was 25 µM; in data set [2] (read-out: IC50 for PDE III inhibition), approximately 25 µM.

On to `CCNc1nc(=O)n(Cc2ccc(Cl)cc2)c2nc(C(C)C)[nH]c12` [Ex. 5b, 3-(4-Chlorobenzyl)-N^6-ethyl-8-isopropyl-isoguanine], for which the figures for the half-maximal inhibitory concentration (IC50) in data set [3], in data set [1] and in data set [2] (setting [4]) were 9.4 µM, 0.5 µM and 317 µM, respectively.

As for `CC(C)c1nc2c([nH]1)c(=S)[nH]c(=O)n2-c1cccc(Cl)c1` [Ex. 11, 3-(3-Chlorophenyl)-8-isopropyl-6-thioxanthine], the results for the half-maximal inhibitory concentration (IC50) in data set [1] and in data set [2] (setting [4]) were 65.4 µM and 311 µM, respectively.

`CCn1c(=O)[nH]c(=S)c2[nH]c(Cc3ccc(OC)c(OC4CCCC4)c3)nc21` [Ex. 8, 8-(3-cyclopentyloxy-4-methoxybenzyl)-3-ethyl-6-thio-xanthine]: the melting point lay in the range of 195 to 197 °C. In data set [3], this compound had an IC50 of 4 µM. For the same compound, in data set [1], the IC50 came to 23.9 µM. The 50% inhibitory concentration (IC50) in data set [2] (setting [4]) was 28.2 µM.

Compound `CCCNc1nc(=O)n(CC2CC2)c2nc(C(C)C)[nH]c12` [Ex. 6, 3-Cyclopropylmethyl-8-isopropyl-N^6-propyl-isoguanine] showed a melting point of 208 to 210 °C. The compound further gave an IC50 in data set [3] of 24 µM. The concentration for half-maximal inhibition (IC50) in data set [2] (setting [4]) was found to be 492 µM.

Regarding `COc1ccc(Cn2c(=O)[nH]c(=S)c3[nH]c(C(C)C)nc32)cc1OC1CCCC1` (hydrate or solvate) [Ex. 1, 3-(3-Cyclopentyloxy-4-methoxy-benzyl)-8-isopropyl-6-thioxanthine], the melting point lay in the range of 192 to 193 °C.

For `CCCn1c(=O)[nH]c(=S)c2[nH]c(Cc3ccc(OC)c(OC)c3)nc21` [Ex. 9, 8-(3,4-dimethoxybenzyl)-3-propyl-6-thio-xanthine], the melting point was in the range of 237 to 239 °C. For the same compound, the IC50 in data set [3] amounted to 8.5 µM. The IC50 in data set [2] (setting [4]) was found to be 23.6 µM.

As for `CC(C)c1nc2c([nH]1)c(=S)[nH]c(=O)n2Cc1ccncc1` [Ex. 3, 8-Isopropyl-3-(4-picolyl)-6-thioxanthine], the melting point is 310 to 314 °C (dec.). This compound registered an IC50 in data set [3] of 18.2 µM. Also, the IC50 in data set [2] (setting [4]) came out at 215 µM.

Consider `CC(C)c1nc2c([nH]1)c(=S)[nH]c(=O)n2Cc1ccc(Cl)cc1` [Ex. 5a, 3-(4-Chlorobenzyl)-8-isopropyl-6-thioxanthine], for which the concentration for half-maximal inhibition (IC50) in data set [3] was determined as 8.6 µM; in data set [1], 2 µM; in data set [2] (setting [4]), 29 µM.

As for `CCNc1nc(=O)n(CC)c2nc(C3CC3)[nH]c12` [Ex. 7, 8-Cyclopropyl-3, N^6-diethyl-isoguanine], the 50% inhibitory concentration (IC50) in data set [3] was found to be 51 µM; in data set [2] (setting [4]) it was 207 µM.

`COc1ccc(C2CNC(=O)C2)cc1OC1CCCC1` (centres unmarked) [Rolipram, reference compound]: the values for the IC50 in data set [3] and in data set [2] (setting [4]) were 2.6 µM and 790 µM, respectively.

In turn, `CCCn1c(=O)[nH]c(=S)c2[nH]c(Cc3ccc4ccccc4c3)nc21` [Ex. 10, 8-(2-naphthylmethyl)-3-propyl-6-thio-xanthine] showed a melting point of 220 to 223 °C. Further, the 50% inhibitory concentration (IC50) in data set [3] is 2.8 µM. Moreover, in data set [1], half-maximal inhibition (IC50) was put at 3.8 µM. Further, in data set [2] (setting [4]), the IC50 amounted to 2.7 µM.

On to `O=c1[nH]c(=S)c2[nH]cnc2n1Cc1ccc(Cl)cc1` [Ex. 2, 3-(4-Chlorobenzyl)-6-thioxanthine], for which the melting point fell in the range of 313 to 317 °C. Moreover, the IC50 in data set [3] turned out to be 78 µM. Also, the half-inhibitory concentration (IC50) in data set [2] (setting [4]) was 25 µM.

Compound `CC(C)c1nc2c([nH]1)c(=S)[nH]c(=O)n2Cc1cccc(Cl)c1` [Ex. 4, 3-(3-Chlorobenzyl)-8-isopropyl-6-thioxanthine] yielded a melting point of 218 to 220 °C. In data set [3], this compound displayed an IC50 of 4.1 µM. In data set [1], it took 0.7 µM to reach half-maximal inhibition (IC50). For the same compound, in data set [2] (setting [4]), the IC50 was found to be 44 µM.

As to `CCNc1nc(=O)n(Cc2ccc(OC)c(OC3CCCC3)c2)c2nc(C(C)C)[nH]c12` [compound 12, 3-(3-Cyclopentyloxy-4-methoxy-benzyl)-N^6-ethyl-8-isopropyl-isoguanine], the melting point was in the range of 110 to 115 °C.

What is called IC50 is the midpoint of a concentration-inhibition curve. By melting point is commonly meant the temperature, or range, at which the solid turns liquid.
